{"source": "patent US10718006B2", "about": "“Methods for detecting beta-lactamase-producing bacteria” (priority 2015, dated 2020)", "test_in_all_cases": "β-Lacta Test (colorimetric, HMRZ-86), isolated colonies", "format_in_all_cases": "cell-based", "design_in_all_cases": "key: Yellow or orange colour: negative result (absence of C3G-resistant strains); Orange: Yellow or orange colour: negative result (absence of C3G-resistant strains); Red colour: positive result (presence of C3G-resistant strains)", "key": {"[1]": {"tested_on": "E. aerogenes strains", "experimental": "(§1) The electrochemical method of the invention was applied to analysis of a panel of 40 strains producing various β-lactamases and was compared with the R-Lacta™ Test (Biorad), the principle of which is based on qualitative colorimetric detection of the C3G-resistant strains. The results presented in Table 7 were obtained after 30 min of incubation of the bacteria with the substrate HMRZ-86 for both methods. Based on the interpretation of the results proposed by the supplier, the R-Lacta™ Test allows identification of the C3G-resistant strains with a level of agreement of 68%, whereas a level of agreement of 95% was obtained with the electrochemical method of the invention. In contrast to colorimetry, amperometry offers the advantage of measuring a numerical value of current which, on the one hand, avoids any subjective interpretation of the result (intermediate colour), and on the other hand allows traceability of the result.\n(§2) Table 7: Comparison of the results obtained with the electrochemical method of the invention for liquid cultures with those obtained with the R-Lacta™ Test implemented according to the supplier's recommendations with isolated colonies. In both cases, the readings were taken after incubation with the substrate HMRZ-86 for 30 min."}, "[2]": {"tested_on": "E. coli strains producing various β-lactamases", "experimental": "as §1, §2"}, "[3]": {"tested_on": "K. oxytoca strain", "details": "K. oxytoca 11779, Low-level penicillinase, 30 min with HMRZ-86", "experimental": "as §1, §2"}, "[4]": {"tested_on": "K. pneumoniae strains", "experimental": "as §1, §2"}, "[5]": {"tested_on": "P. mirabilis strains", "details": "30 min with HMRZ-86", "experimental": "as §1, §2"}}, "data": [{"smiles": "CC(C)(ON=C(C(=O)N[C@@H]1C(=O)N2C(C(=O)O)=C(C=Cc3ccc([N+](=O)[O-])cc3[N+](=O)[O-])CS[C@H]12)c1csc(N)n1)C(=O)O.O=C(O)C(F)(F)F", "note": "[HMRZ-86, (6R,7R)-trifluoroacetate 7-[[2-(2-amino-4-thiazolyl)-2-[(1-carboxy-1-methylethoxy)imino]acetyl]amino]-1-aza-3-[2-(2,4-dinitrophenyl)ethenyl]-8-oxo-5-thiabicyclo[4.2.0]oct-2-ene-2-carboxylic acid]", "values": [{"measurement": "β-Lacta ™ Test Colour", "setting": "[1]; E. aerogenes 11772, Inducible cephalosporinase, 30 min with HMRZ-86", "value": "Yellow"}, {"measurement": "β-Lacta ™ Test Colour", "setting": "[1]; E. aerogenes 11775, Hyperproduced cephalosporinase, 30 min with HMRZ-86", "value": "Yellow"}, {"measurement": "β-Lacta ™ Test Colour", "setting": "[1]; E. aerogenes 11796, ESBL TEM 24, 30 min with HMRZ-86", "value": "Orange"}, {"measurement": "β-Lacta ™ Test Colour", "setting": "[2]; E. coli 11746, Hyperproduced penicillinase, 30 min with HMRZ-86", "value": "Yellow"}, {"measurement": "β-Lacta ™ Test Colour", "setting": "[2]; E. coli 11748, Inducible cephalosporinase, 30 min with HMRZ-86", "value": "Yellow"}, {"measurement": "β-Lacta ™ Test Colour", "setting": "[2]; E. coli 11755, Carbapenemase OXA-48 - CTX-M, 30 min with HMRZ-86", "value": "Red"}, {"measurement": "β-Lacta ™ Test Colour", "setting": "[2]; E. coli 11757, Carbapenemase OXA-48, 30 min with HMRZ-86", "value": "Orange"}, {"measurement": "β-Lacta ™ Test Colour", "setting": "[2]; E. coli 11765, Hyperproduced penicillinase, 30 min with HMRZ-86", "value": "Yellow"}, {"measurement": "β-Lacta ™ Test Colour", "setting": "[2]; E. coli 11766, Inducible cephalosporinase, 30 min with HMRZ-86", "value": "Yellow"}, {"measurement": "β-Lacta ™ Test Colour", "setting": "[2]; E. coli 11771, Hyperproduced penicillinase, 30 min with HMRZ-86", "value": "Yellow"}, {"measurement": "β-Lacta ™ Test Colour", "setting": "[2]; E. coli 11776, Inducible cephalosporinase, 30 min with HMRZ-86", "value": "Yellow"}, {"measurement": "β-Lacta ™ Test Colour", "setting": "[2]; E. coli 11780, Hyperproduced penicillinase, 30 min with HMRZ-86", "value": "Yellow"}, {"measurement": "β-Lacta ™ Test Colour", "setting": "[2]; E. coli 11781, Low-level penicillinase, 30 min with HMRZ-86", "value": "Yellow"}, {"measurement": "β-Lacta ™ Test Colour", "setting": "[2]; E. coli 11791, Hyperproduced cephalosporinase, 30 min with HMRZ-86", "value": "Yellow"}, {"measurement": "β-Lacta ™ Test Colour", "setting": "[2]; E. coli 11810, ESBL CTX-M-1, 30 min with HMRZ-86", "value": "Red"}, {"measurement": "β-Lacta ™ Test Colour", "setting": "[2]; E. coli 11817, ESBL CTX-M-2, 30 min with HMRZ-86", "value": "Red"}, {"measurement": "β-Lacta ™ Test Colour", "setting": "[2]; E. coli 11818, ESBL CTX-M-1, 30 min with HMRZ-86", "value": "Red"}, {"measurement": "β-Lacta ™ Test Colour", "setting": "[2]; E. coli 11820, ESBL SHV-12, 30 min with HMRZ-86", "value": "Red"}, {"measurement": "β-Lacta ™ Test Colour", "setting": "[2]; E. coli 11828, ESBL CTX-M-27, 30 min with HMRZ-86", "value": "Red"}, {"measurement": "β-Lacta ™ Test Colour", "setting": "[2]; E. coli 11833, ESBL CTX-M-9, 30 min with HMRZ-86", "value": "Red"}, {"measurement": "β-Lacta ™ Test Colour", "setting": "[2]; E. coli 11834, ESBL TEM-12, 30 min with HMRZ-86", "value": "Yellow"}, {"measurement": "β-Lacta ™ Test Colour", "setting": "[2]; E. coli 11863, ESBL CTX-M-14, 30 min with HMRZ-86", "value": "Red"}, {"measurement": "β-Lacta ™ Test Colour", "setting": "[2]; E. coli K12, Beta-lactamase negative, 30 min with HMRZ-86", "value": "Yellow"}, {"measurement": "β-Lacta ™ Test Colour", "setting": "[3]", "value": "Yellow"}, {"measurement": "β-Lacta ™ Test Colour", "setting": "[4]; K. pneumoniae 11754, Carbapenemase OXA-48 - CTX-M, 30 min with HMRZ-86", "value": "Red"}, {"measurement": "β-Lacta ™ Test Colour", "setting": "[4]; K. pneumoniae 11762, Carbapenemase OXA-48, 30 min with HMRZ-86", "value": "Orange"}, {"measurement": "β-Lacta ™ Test Colour", "setting": "[4]; K. pneumoniae 11770, Low-level penicillinase, 30 min with HMRZ-86", "value": "Yellow"}, {"measurement": "β-Lacta ™ Test Colour", "setting": "[4]; K. pneumoniae 11812, ESBL CTX-M-15, 30 min with HMRZ-86", "value": "Red"}, {"measurement": "β-Lacta ™ Test Colour", "setting": "[4]; K. pneumoniae 11839, Carbapenemase KPC-2, 30 min with HMRZ-86", "value": "Red"}, {"measurement": "β-Lacta ™ Test Colour", "setting": "[4]; K. pneumoniae 11842, Carbapenemase NDM-1, 30 min with HMRZ-86", "value": "Red"}, {"measurement": "β-Lacta ™ Test Colour", "setting": "[5]; P. mirabilis 11747, Beta-lactamase negative", "value": "Yellow"}, {"measurement": "β-Lacta ™ Test Colour", "setting": "[5]; P. mirabilis 11768, Low-level penicillinase", "value": "Yellow"}]}]}
